From patent US12084472B2 (Ardelyx, Inc., priority 2015, dated 2024)

Target: T1, human TGR5 (Homo sapiens, UniProt Q8TDU6)
T1 construct: expressed in transfected cells; host or cells: HEK293
T1 sequence (Q8TDU6 1-330): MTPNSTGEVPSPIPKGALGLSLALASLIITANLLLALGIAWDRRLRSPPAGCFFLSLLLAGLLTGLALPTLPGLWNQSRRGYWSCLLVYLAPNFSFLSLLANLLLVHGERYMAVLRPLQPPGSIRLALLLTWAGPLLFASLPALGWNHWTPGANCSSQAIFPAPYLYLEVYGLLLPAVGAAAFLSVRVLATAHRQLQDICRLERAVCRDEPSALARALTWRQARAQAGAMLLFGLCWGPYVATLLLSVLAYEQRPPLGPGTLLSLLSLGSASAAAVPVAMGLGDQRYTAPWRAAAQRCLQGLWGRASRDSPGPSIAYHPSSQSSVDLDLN
Assay: Cell-based TGR5 assay (cAMP generation, HTRF)
Settings: HEK293 cells stably transfected with human TGR5; cAMP by HTRF; 30 minutes at 37° C.; read-out: pEC50 Human TGR5 (converted)
Procedure, shortened: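 Read-out was HTRF detection of cAMP, converted to concentration via a standard curve and fitted (3-parameter logistic) for pEC50 and maximal response. Agonist stimulation used HEK293 cells stably transfected with human TGR5, incubated 30 min at 37° C in IBMX-containing buffer at 0.05 nM to 10 μM compound.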

Row | Structure (SMILES) | EC50 [nM]
1 | O=C(CCCCc1cc(Cl)c(COC2(c3cnccc3-c3ccccc3OC3CC3)CC2)cc1Cl)N(Cc1ccccc1)C[C@H](O)[C@@H](O)[C@H](O)[C@H](O)CO [Compound I-126, N-benzyl-5-(2,5-dichloro-4((1-(4-(2-cyclopropoxyphenyl)pyridin-3-yl)cyclopropoxy)methyl)phenyl)-N-((2S,3R,4R,5R)-2,3,4,5,6-pentahydroxyhexyl)pentanamide] | 126 to 1000
2 | Cc1ccc(SCCCCN(C(=O)[C@@H](O)[C@@H](O)[C@H](O)[C@@H](O)CO)C2CCOCC2)cc1COC1(c2cnccc2-c2ccccc2OC2CC2)CC1 [Compound I-562, (2S,3S,4R,5S)-N-(4-{[3-({1-[4-(2-cyclopropoxyphenyl)pyridin-3-yl]cyclopropoxy}methyl)-4-methylphenyl]sulfanyl}butyl)-2,3,4,5,6-pentahydroxy-N-(oxan-4-yl)hexanamide] | 126 to 1000
3 | Cc1ccc(C(CO)CCCNC(=O)[C@@H](O)[C@@H](O)[C@H](O)[C@@H](O)CO)cc1CNC1(c2cnccc2-c2ccccc2OC2CC2)CC1 (stereo partly drawn) [Compound I-386, (2S,3S,4R,5S)-N-(4-{3-[({1-[4-(2-cyclopropoxyphenyl)pyridin-3-yl]cyclopropyl}amino)methyl]-4-methylphenyl}-5-hydroxypentyl)-2,3,4,5,6-pentahydroxyhexanamide] | < 100
4 | COc1cc(C)c(CNC2(c3cnccc3-c3ccccc3OC3CC3)CC2)cc1C(C)C [Compound I-38, 1-[4-(2-cyclopropoxyphenyl)pyridin-3-yl]-N-{[4-methoxy-2-methyl-5-(propan-2-yl)phenyl]methyl}cyclopropan-1-amine] | 126 to 1000
5 | COc1ccccc1-c1ccncc1C1(NCc2cc(Cl)c(CCCCC(=O)N(C)C[C@H](O)[C@@H](O)[C@H](O)[C@H](O)CO)cc2Cl)CC1 [Compound I-134, 5-{2,5-dichloro-4-[({1-[4-(2-methoxyphenyl)pyridin-3-yl]cyclopropyl}amino)methyl]phenyl}-N-methyl-N-[(2S,3R,4R,5R)-2,3,4,5,6-pentahydroxyhexyl]pentanamide] | 126 to 1000
6 | O=C(NC[C@H](O)[C@@H](O)[C@H](O)[C@H](O)CO)[C@H]1CC[C@H](CNS(=O)(=O)c2ccc(Cl)c(COC3(c4cnccc4-c4ccccc4OC4CC4)CC3)c2)CC1 [Compound I-436, (1r,4r)-4-[4-chloro-3-({1-[4-(2-cyclopropoxyphenyl)pyridin-3-yl]cyclopropoxy}methyl)benzenesulfonamidomethyl]-N-[(2S,3R,4R,5R)-2,3,4,5,6-pentahydroxyhexyl]cyclohexane-1-carboxamide] | < 100
7 | CCS(=O)(=O)CCN(CCCCCSc1ccc(Cl)c(COC2(c3cnccc3-c3ccccc3OC3CC3)CC2)c1)C(=O)[C@@H](O)[C@@H](O)[C@H](O)[C@@H](O)CO [Compound I-604, (2S,3S,4R,5S)-N-(5-{[4-chloro-3-({1-[4-(2-cyclopropoxyphenyl)pyridin-3-yl]cyclopropoxy}methyl)phenyl]sulfanyl}pentyl)-N-[2-(ethanesulfonyl)ethyl]-2,3,4,5,6-pentahydroxyhexanamide] | < 100
8 | O=C([C@@H](O)[C@@H](O)[C@H](O)[C@@H](O)CO)N(CCCCO)CCCCCSc1ccc(Cl)c(COC2(c3cnccc3-c3ccccc3OC3CC3)CC2)c1 [Compound I-605, (2S,3S,4R,5S)-N-(5-{[4-chloro-3-({1-[4-(2-cyclopropoxyphenyl)pyridin-3-yl]cyclopropoxy}methyl)phenyl]sulfanyl}pentyl)-2,3,4,5,6-pentahydroxy-N-(4-hydroxybutyl)hexanamide] | < 100
9 | O=C(NC[C@H](O)[C@@H](O)[C@H](O)[C@H](O)CO)C1CCN(S(=O)(=O)c2ccc(Cl)c(COC3(c4cnccc4-c4ccccc4OC4CC4)CC3)c2)CC1 [Compound I-437, 1-[4-chloro-3-({1-[4-(2-cyclopropoxyphenyl)pyridin-3-yl]cyclopropoxy}methyl)benzenesulfonyl]-N-[(2S,3R,4R,5R)-2,3,4,5,6-pentahydroxyhexyl]piperidine-4-carboxamide] | < 100
10 | O=C(CCCCc1cc(Cl)c(COC2(c3cnccc3-c3ccccc3OC3CC3)CC2)cc1Cl)N(CCCO)C[C@H](O)[C@@H](O)[C@H](O)[C@H](O)CO [Compound I-218, 5-[2,5-dichloro-4-({1-[4-(2-cyclopropoxyphenyl)pyridin-3-yl]cyclopropoxy}methyl)phenyl]-N-(3-hydroxypropyl)-N-[(2S,3R,4R,5R)-2,3,4,5,6-pentahydroxyhexyl]pentanamide] | < 100
11 | O=C(C1CCOCC1)N(CCCCc1cc(Cl)c(COC2(c3cnccc3-c3ccccc3OC3CC3)CC2)cc1Cl)C[C@H](O)[C@@H](O)[C@H](O)[C@H](O)CO [Compound I-67, N-(4-(2,5-dichloro-4-((1-(4-(2-cyclopropoxyphenyl)pyridin-3-yl)cyclopropoxy)methyl)phenyl)butyl)-N-((2S,3R,4R,5R)-2,3,4,5,6-pentahydroxyhexyl)tetrahydro-2H-pyran-4-carboxamide] | < 100
12 | Cc1ccc(C)c(CNC2(c3cnccc3-c3ccccc3OC3CC3)CC2)c1 [Compound I-24, 1-[4-(2-cyclopropoxyphenyl)pyridin-3-yl]-N-[(2,5-dimethylphenyl)methyl]cyclopropan-1-amine] | < 100
13 | O=C(NCCCC[C@H](NS(=O)(=O)c1ccc(Cl)c(COC2(c3cnccc3-c3ccccc3OC3CC3)CC2)c1)C(=O)O)NC[C@H](O)[C@@H](O)[C@H](O)[C@H](O)CO [Compound I-483, (2S)-2-[4-chloro-3-({1-[4-(2-cyclopropoxyphenyl)pyridin-3-yl]cyclopropoxy}methyl)benzenesulfonamido]-6-({[(2S,3R,4R,5R)-2,3,4,5,6-pentahydroxyhexyl]carbamoyl}amino)hexanoic acid] | 126 to 1000
14 | Cc1ccc(CCCCNC(=O)N(C)C[C@H](O)[C@@H](O)[C@H](O)[C@H](O)CO)nc1CNC1(c2cnccc2-c2ccccc2OC2CC2)CC1 [Compound I-706] | 1260 to 10000
15 | CC(=O)NCCCN(CCCCSc1ccc(Cl)c(COC2(c3cnccc3-c3ccccc3OC3CC3)CC2)c1)C(=O)[C@@H](O)[C@@H](O)[C@H](O)[C@@H](O)CO [Compound I-566, (2S,3S,4R,5S)-N-(4-{[4-chloro-3-({1-[4-(2-cyclopropoxyphenyl)pyridin-3-yl]cyclopropoxy}methyl)phenyl]sulfanyl}butyl)-N-(3-acetamidopropyl)-2,3,4,5,6-pentahydroxyhexanamide] | < 100
16 | Cc1cc(COC2(c3cnccc3-c3ccccc3OC3CC3)CC2)c(Cl)cc1CCCCNC(=O)[C@@H](O)[C@@H](O)[C@H](O)[C@@H](O)CN1CCOCC1 (stereo in doubt) [Compound I-176, (2S,3S,4R,5S)-N-{4-[5-chloro-4-({1-[4-(2-cyclopropoxyphenyl)pyridin-3-yl]cyclopropoxy}methyl)-2-methylphenyl]butyl}-2,3,4,5-tetrahydroxy-6-(morpholin-4-yl)hexanamide] | < 100
17 | CSc1cnc(CNC2(c3cnccc3-c3ccccc3OC3CC3)CC2)c(C)c1 [Compound I-39, 1-[4-(2-cyclopropoxyphenyl)pyridin-3-yl]-N-{[3-methyl-5-(methylsulfanyl)pyridin-2-yl]methyl}cyclopropan-1-amine] | 126 to 1000
